Experiment [1] deals with spontaneously contracting cell aggregates (certain channels in the heart: potassium and calcium channels). In words: Drug tests on the cell aggregates (electrophysiology, intracellular derivation with a sharp electrode). Type of experiment: cell-based, Rainbow trouts (Oncorhynchus mykiss, Walbaum). The following applies: for reaction of the aggregates on drugs which influence certain channels in the heart: FIG. 10; for recovery of the aggregates after the drug testing: medium change. On the procedure: FIG. 10 Effect of cardiac drugs on the cell aggregates; A: isoproterenol (calcium channel agonist); B: rilmakalim ([…])
The electrophysiology is important for the use of the cell aggregates as a test system in pharmacology. Measurement of the electric activity was performed by means of extracellular measurement via MEA (multi-electrode array) and intracellular measurement via a sharp electrode.
The properties of action potentials and the examination on certain channels (potassium and calcium channels) were carried out with a sharp electrode.
The reaction of the aggregates on drugs which influence certain channels in the heart is of importance for the functionality as a test model. […] Examinations were carried out with isoproterenol (calcium channel agonist) (FIG. 10A) and rilmakalim ([…]).

Experiment [2] deals with spontaneously contracting cell aggregate. As to the kind of experiment: Reaction of cell aggregates on the addition of potassium (light microscope, video recordings). Type of experiment: cell-based, Rainbow trouts (Oncorhynchus mykiss, Walbaum). On the procedure:
The reaction of a cell aggregate which had already contracted for 16 days in culture on potassium could be tested in another experiment. It was shown under a light microscope (Axiovert 40C; Zeiss, Germany) with video recordings that the beating frequency of this aggregate increased from 66 beats per minute to 72 beats per minute over a period of 10 minutes. After these 10 minutes, a 1.75 mM potassium chloride solution was added. […] After removing the medium containing the 1.75 mM KCl solution and replacing it with fresh DMEM/20% FBS, the cell aggregate began to beat again after 2 minutes. However, the beating frequency was at first only 16 beats per minute which recovered to the original frequency within the next three days.

Regarding `CC(C)NCC(O)c1ccc(O)c(O)c1` (centres unmarked) [isoproterenol], in experiment [1], the “reaction of the aggregates on drugs which influence certain channels in the heart” value is “in the same manner as the human heart” and the “recovery of the aggregates after the drug testing” value is reported as “recover after the drug testing by means of a medium change”.
Take `[Cl-].[K+]` [potassium chloride]: the “contraction speed of the aggregate after adding the KCl solution” value in experiment [2] (1.75 mM potassium chloride solution, aggregate 16 days contracting in culture, for 6 seconds after addition, baseline 66-72 beats per minute) is given as “triple the speed as before”. Moreover, the “time after addition until contraction stopped” value in experiment [2] (1.75 mM potassium chloride solution, no more contractions observed) came out at 10 s. Also, the “beating frequency at first after medium replacement” value in experiment [2] (after removal of 1.75 mM KCl, recovered to the original frequency within the next three days) turned out to be 16 beats per minute. For the same compound, the “time until the cell aggregate began to beat again after replacing medium” value in experiment [2] (after removing medium containing 1.75 mM KCl and replacing with fresh DMEM/20% FBS) worked out at 2 min.
As to `CC1(C)Oc2ccc(S(=O)(=O)c3ccccc3)cc2[C@@H](N2CCCC2=O)[C@@H]1O` [rilmakalim], in experiment [1], the “reaction of the aggregates on drugs which influence certain channels in the heart” value is reported as “in the same manner as the human heart” and the “recovery of the aggregates after the drug testing” value is listed as “recover after the drug testing by means of a medium change”.
